Common to all, as to type: cell-based
The subject of experiment [1] is Raw 264.7 cells. Description: NO production inhibition, LPS-treated cells, NO quantification kit. The settings on record: positive control, 200 ppm. On the procedure:
In order to verify the skin soothing and anti-inflammatory effects of the bee pollen exosome raw material prepared in Preparation Example 2, the NO production inhibitory effect was measured as follows, and compared with those of the pollen extract raw material, the bee pollen extract raw material, and the plant-derived exosome raw material which are the control groups.
In detail, the NO production inhibitory effects of the above samples were measured using Raw 264.7 cells. As a positive control, 20 mg/ml L-NMMA1 (NOS inhibitor) was used, and the samples were diluted to 0.01% and 0.1% concentrations (v/v %) and treated for 30 minutes, followed by treatment with 1 μg/ml LPS and culturing for 24 hours. Then, the ability to inhibit NO production was evaluated using a NO quantification kit as follows. All results were expressed as mean±standard deviation (SD) after three or more independent experiments.
NO production inhibitory ability (%)=(1−([…] NO production amount with sample addition))/(NO production amount without sample addition)×100

For experiment [2], the system named is B16f10 melanocytes. Description: Melanin production inhibition in melanocytes. Conditions: Mus musculus, B16-F10, positive control, read-out: inhibition of melanin synthesis. On the procedure:
In order to verify the whitening effect of the bee pollen exosome raw material prepared in Preparation Example 2, the melanin production-inhibitory effect was measured as follows.
In detail, the whitening efficacy of the bee pollen exosome raw material was evaluated by measuring the degree of reduction in the amount of melanin pigment present in melanocytes. The bee pollen exosome raw material was diluted to 0.01% and 0.1% concentrations (v/v %), and B16f10 melanocytes were treated therewith, and cultured for 72 hours, and melanin was quantified to evaluate the whitening efficacy. The melanin content was calculated based on the total protein amount, and the melanin production inhibition rate was calculated as %, based on a DMSO control group. 200 ppm of arbutin was treated as a positive control group.
In detail, the bee pollen extract raw material was prepared by grinding the same amount of bee pollens in the same manner as in preparing the bee pollen exosome, and by extracting using a general low-temperature extraction method of using purified water for 24 hours to 72 hours under the same temperature conditions (4° C. to 25° C.). […]

The test system of experiment [3] is human dermal fibroblast (HDF) cells. The experiment in a line: Collagen synthesis efficacy (procollagen type I C-peptide EIA). Conditions: positive control, 10 ng/ml, compared to untreated group. On the procedure:
To verify the collagen synthesis effect of the bee pollen exosome raw material prepared in Preparation Example 2, measurements were performed as follows.
In detail, the collagen synthesis effect was evaluated using human dermal fibroblast (HDF) cells. After pre-treating the cells with the bee pollen exosome raw material sample for 48 hours, collagen synthesis efficacy was measured using a human procollagen type I C-peptide (PIP) EIA kit. The collagen synthesis efficacy of the sample was determined by calculating the increased value in percentage (%), as compared to the untreated control group, and the results are shown in a table. 10 ng/ml TGF-b was used as a positive control group.
All of the above samples were diluted to 0.01% and 0.1% concentrations (v/v %) and evaluated.

For the compound `CNC(=N)NCCC[C@H](N)C(=O)O` [L-NMMA1], in experiment [1], the “NO production inhibition ability” value is 59.17%.
Take `OC[C@H]1O[C@@H](Oc2ccc(O)cc2)[C@H](O)[C@@H](O)[C@@H]1O` [arbutin]: the inhibition (as a rule, the percentage by which the read-out fell short of the control) at 200 ppm in experiment [2] amounted to 38.1%.
The compound “TGF-b: 10 ng/ml TGF-b used as positive control for collagen synthesis” yielded a collagen synthesis increase in experiment [3] of 29.87%.

Values taken from patent publication US20240173249A1, “COSMETIC COMPOSITION CONTAINING BEE POLLEN EXOSOME” (LG HOUSEHOLD & HEALTH CARE LTD., priority 2022, published 2024).
